ChEMBL document CHEMBL4020788, “Synthesis, SAR and molecular docking studies of benzo[d]thiazole-hydrazones as potential antibacterial and antifungal agents” (2017)
≈ marks a conversion by molar mass, not a printed value.

Tested on: Fusarium verticillioides
Experiment: Antifungal activity against Fusarium moniliforme at 75 ug/ml after 48 hrs by agar well diffusion method
Assay type: functional
Details: read-out: DIZ

Question: For `COc1cc(/C=N/Nc2nc3cccc(C)c3s2)cc(OC)c1OC`, which zone of inhibition at 75 µg/mL is on record?
Answer: 33 mm

Tested on: Staphylococcus aureus
Experiment: Antibacterial activity against methicillin resistant Staphylococcus aureus MRSA090 incubated for overnight by microdilution method
Assay type: functional
Details: not given

Question: How did the MIC turn out when `COc1cc(/C=N/Nc2nc3cccc(C)c3s2)cc(OC)c1OC` was run?
Answer: 19 µg/mL (≈ 53.2 µM)

Tested on: Bacillus subtilis
Experiment: Antibacterial activity against Bacillus subtilis incubated for overnight by microdilution method
Assay type: functional
Details: not given

Question: With `COc1cc(/C=N/Nc2nc3cccc(C)c3s2)cc(OC)c1OC` as the molecule, how does the MIC read?
Answer: 18 µg/mL (≈ 50.4 µM)

Tested on: Fusarium verticillioides
Experiment: Antifungal activity against Fusarium moniliforme at 100 ug/ml after 48 hrs by agar well diffusion method
Assay type: functional
Details: read-out: DIZ

Question: With `COc1cc(/C=N/Nc2nc3cccc(C)c3s2)cc(OC)c1OC` as the molecule, how does the zone of inhibition at 100 µg/mL read?
Answer: 37 mm

Tested on: Staphylococcus aureus
Experiment: Antibacterial activity against Staphylococcus aureus at 50 ug/ml after 24 hrs by agar well diffusion method
Assay type: functional
Details: read-out: DIZ

Question: For `COc1cc(/C=N/Nc2nc3cccc(C)c3s2)cc(OC)c1OC`, which zone of inhibition at 50 µg/mL is on record?
Answer: 28 mm

Tested on: Klebsiella pneumoniae
Experiment: Antibacterial activity against Klebsiella pneumoniae at 25 ug/ml after 24 hrs by agar well diffusion method
Assay type: functional
Details: read-out: DIZ

Question: Which zone of inhibition at 25 µg/mL does the source give for `COc1cc(/C=N/Nc2nc3cccc(C)c3s2)cc(OC)c1OC` here?
Answer: 21 mm

Tested on: Fusarium verticillioides
Experiment: Antifungal activity against Fusarium moniliforme at 50 ug/ml after 48 hrs by agar well diffusion method
Assay type: functional
Details: read-out: DIZ

Question: How did the zone of inhibition at 50 µg/mL turn out when `COc1cc(/C=N/Nc2nc3cccc(C)c3s2)cc(OC)c1OC` was run?
Answer: 28 mm

Tested on: Klebsiella pneumoniae
Experiment: Antibacterial activity against Klebsiella pneumoniae at 100 ug/ml after 24 hrs by agar well diffusion method
Assay type: functional
Details: read-out: DIZ

Question: `COc1cc(/C=N/Nc2nc3cccc(C)c3s2)cc(OC)c1OC` was tested. Which zone of inhibition at 100 µg/mL did it give?
Answer: 38 mm

Tested on: Klebsiella pneumoniae
Experiment: Antibacterial activity against Klebsiella pneumoniae at 50 ug/ml after 24 hrs by agar well diffusion method
Assay type: functional
Details: read-out: DIZ

Question: How did the zone of inhibition at 50 µg/mL turn out when `COc1cc(/C=N/Nc2nc3cccc(C)c3s2)cc(OC)c1OC` was run?
Answer: 27 mm

Tested on: Fusarium verticillioides
Experiment: Antifungal activity against Fusarium moniliforme at 25 ug/ml after 48 hrs by agar well diffusion method
Assay type: functional
Details: read-out: DIZ

Question: Which zone of inhibition at 25 µg/mL does the source give for `COc1cc(/C=N/Nc2nc3cccc(C)c3s2)cc(OC)c1OC` here?
Answer: 23 mm

Tested on: Aspergillus niger
Experiment: Antifungal activity against Aspergillus niger at 50 ug/ml after 48 hrs by agar well diffusion method
Assay type: functional
Details: read-out: DIZ

Question: How did the zone of inhibition at 50 µg/mL turn out when `COc1cc(/C=N/Nc2nc3cccc(C)c3s2)cc(OC)c1OC` was run?
Answer: 14 mm

Tested on: Bacillus subtilis
Experiment: Antibacterial activity against Bacillus subtilis at 100 ug/ml after 24 hrs by agar well diffusion method
Assay type: functional
Details: read-out: DIZ

Question: With `COc1cc(/C=N/Nc2nc3cccc(C)c3s2)cc(OC)c1OC` as the molecule, how does the zone of inhibition at 100 µg/mL read?
Answer: 33 mm

Tested on: Aspergillus niger
Experiment: Antifungal activity against Aspergillus niger at 75 ug/ml after 48 hrs by agar well diffusion method
Assay type: functional
Details: read-out: DIZ

Question: Which zone of inhibition at 75 µg/mL does the source give for `COc1cc(/C=N/Nc2nc3cccc(C)c3s2)cc(OC)c1OC` here?
Answer: 20 mm

Tested on: Bacillus subtilis
Experiment: Antibacterial activity against Bacillus subtilis at 75 ug/ml after 24 hrs by agar well diffusion method
Assay type: functional
Details: read-out: DIZ

Question: `COc1cc(/C=N/Nc2nc3cccc(C)c3s2)cc(OC)c1OC` was tested. Which zone of inhibition at 75 µg/mL did it give?
Answer: 28 mm

Tested on: Fusarium oxysporum
Experiment: Antifungal activity against Fusarium oxysporum at 75 ug/ml after 48 hrs by agar well diffusion method
Assay type: functional
Details: read-out: DIZ

Question: Which zone of inhibition at 75 µg/mL does the source give for `COc1cc(/C=N/Nc2nc3cccc(C)c3s2)cc(OC)c1OC` here?
Answer: 17 mm

Tested on: Fusarium verticillioides
Experiment: Antifungal activity against Fusarium moniliforme after 48 to 72 hrs by microdilution method
Assay type: functional
Details: not given

Question: How did the MIC turn out when `COc1cc(/C=N/Nc2nc3cccc(C)c3s2)cc(OC)c1OC` was run?
Answer: 26 µg/mL (≈ 72.7 µM)

Tested on: Aspergillus niger
Experiment: Antifungal activity against Aspergillus niger at 100 ug/ml after 48 hrs by agar well diffusion method
Assay type: functional
Details: read-out: DIZ

Question: `COc1cc(/C=N/Nc2nc3cccc(C)c3s2)cc(OC)c1OC` was tested. Which zone of inhibition at 100 µg/mL did it give?
Answer: 21 mm

Tested on: Bacillus subtilis
Experiment: Antibacterial activity against Bacillus subtilis at 25 ug/ml after 24 hrs by agar well diffusion method
Assay type: functional
Details: read-out: DIZ

Question: With `COc1cc(/C=N/Nc2nc3cccc(C)c3s2)cc(OC)c1OC` as the molecule, how does the zone of inhibition at 25 µg/mL read?
Answer: 19 mm

Tested on: Escherichia coli
Experiment: Antibacterial activity against Escherichia coli at 25 ug/ml after 24 hrs by agar well diffusion method
Assay type: functional
Details: read-out: DIZ

Question: Which zone of inhibition at 25 µg/mL does the source give for `COc1cc(/C=N/Nc2nc3cccc(C)c3s2)cc(OC)c1OC` here?
Answer: 20 mm

Tested on: Fusarium oxysporum
Experiment: Antifungal activity against Fusarium oxysporum at 25 ug/ml after 48 hrs by agar well diffusion method
Assay type: functional
Details: read-out: DIZ

Question: How did the zone of inhibition at 25 µg/mL turn out when `COc1cc(/C=N/Nc2nc3cccc(C)c3s2)cc(OC)c1OC` was run?
Answer: 7 mm
